According to PMC8879074, “A Novel Small Molecular Prostaglandin Receptor EP4 Antagonist, L001, Suppresses Pancreatic Cancer Metastasis” (Molecules, 2022):

Columns and labels:
[1] = test system: YAP, CYR61 and CTGF mRNA in Pan02 cells; assay: Real-time qPCR of YAP and YAP target genes, Pan02; assay type: cell-based, murine; conditions: PGE2 0.1 μM, compound 10 μM, 12 h
Description: (§1) Total RNA was extracted from cells using TRIzol reagent. The cDNA was synthesized by RT-PCR kit (Vazyme Biotech, Nanjing, China). The band intensity was determined by the gel image analysis system (Bio-Rad, Hercules, CA, USA). SYBR Green-based qPCR (Yeason, Shanghai, China) was conducted subsequently. Relative mRNA levels of target genes were normalized with β-actin. The sequences of primers are listed in Supplementary Table S1. The raw data are listed in Supplementary Table S2.

EP4 [2] = biological target: T1, EP4 (Homo sapiens, UniProt P35408); assay: Calcium flux assay, human EP4; assay type: cell-based; design: expressed in transfected cells; host or cells: CHO-Gα16
Description: (§2) Calcium flux assay was conducted as described in our previous study. Briefly, CHO-Gα16 cells were transfected, respectively, with human EP1, human EP2, human EP3, human EP4, monkey EP4, mouse EP4 and rat EP4 overexpression constructs using lipofectamine 2000 according to the manufacturer’s manual. Cells were then seeded into a 96-well black plate with a cell density of 2 × 10^4 cells/100 μL per well for a 16-h culture. On the next day, cells were incubated for 45 min with reagents (100 μL/well) of Calcium-5 Assay Kit (Molecular Devices, San Jose, CA, USA). Then, cells were pre-treated with indicated concentrations of L001 for 15 min and stimulated with PGE2 (EC80). The calcium flux was detected subsequently by a Flexstation® 3 Multi-Mode Microplate Reader (Molecular Devices, San Jose, CA, USA).

[3] = test system: YAP, CYR61, CTGF, Vimentin, Snail, E-cadherin mRNA in BxPC-3 cells; assay: Real-time qPCR of YAP, YAP target genes and EMT markers, BxPC-3; assay type: cell-based, human; conditions: 12 h
Description: as §1

rat EP4 = biological target: T2, rat EP4 (Rattus norvegicus, UniProt P43114); assay: Calcium flux assay, rat EP4; assay type: cell-based
T2 construct: expressed in transfected cells; host or cells: CHO-Gα16
Description: as §2

EP4 [4] = biological target: T1, EP4; assay: TANGO assay (EP4/β-arrestin2 interaction); assay type: cell-based; design: tTA transcription factor (C); expressed in transfected cells; host or cells: CHO-K1
Description: TANGO assay was performed as described previously with some modification. Briefly, CHO-K1 cells were co-transfected with plasmids of EP4-TANGO, β-arrestin-TEV and tTA-luc at a ratio of 0.5:1:1. After 4 h, transfected cells were seeded into 96-well plates and cultured overnight. Then, cells were starved for 5 h and treated with different concentrations of compounds. After incubation for 16 h, cells were lysed and the luciferase activities were determined using Dual-Luciferase Reporter Assay Kit (Promega, Madison, WI, USA).

ERK1/2 phosphorylation = assay: Western blotting of PGE2-induced ERK1/2 phosphorylation; assay type: cell-based; conditions: pre-incubation 20 min, then 30 nM PGE2 for 5 min; dose-dependent
Pan02 cells [5] = assay: Transwell migration assay, Pan02; assay type: cell-based, murine; conditions: Pan02; with PGE2; 24 h
Description: (§3) The transwell assay was conducted as described previously, using 8 μm pore transwell inserts (Corning, NY, USA). Cells were suspended in serum-free DMEM and seeded into upper chambers at appropriate density. The bottom chamber was filled with DMEM supplemented with 10% fetal bovine serum and indicated concentrations of PGE2. The compounds were added in both upper and bottom chambers. […] Migrated cells were counted and quantified using image J.

[6] = test system: Pan02-Luc hepatic metastasis; assay: Pan02-Luc liver metastasis model with bioluminescent imaging; assay type: in vivo, C57BL/6 mice
Description: Male C57/BL6 mice (6–8 weeks) were obtained from the National Rodent Laboratory Animal Resources (NRLAR, Shanghai, China). All mice were housed according to Institutional Animal Care and Use Committee guidelines and under a protocol approved by East China Normal University Ethics Committee with respect to animal care and welfare assurance. The bioluminescent liver metastasis mouse model was established as described previously. In brief, 2 × 10^6 Pan02/luc cells suspended in 50 μL of PBS were injected into mice spleen. […] Tumor metastasis was monitored by using an in vivo imaging system following intraperitoneal injection with D-Luciferin (2 mg per mouse; Promega). Bioluminescence intensity was recorded every seven days by a Xenogen IVIS-200 Optical in vivo imaging system (PerkinElmer; Waltham, MA, USA) for up to 4 weeks. The mouse body weight was measured every other day. Survival curve analysis was performed using GraphPad Prism 7.
Mouse liver tissues were harvested, fixed, paraffin embedded, and sectioned (8 μm). The tissues were permeabilized with 0.25% TritonX-100 at room temperature for 15 min, blocked with 1% FBS in PBS, and followed by incubation in primary antibodies at 4 °C overnight: rabbit anti-YAP (1:50 dilution, ab205270, abcam). The sections were then washed with PBS, incubated with anti-rabbit secondary antibody for 2 h and dyed with DAPI (10 μg/mL in PBS) for 5 min at room temperature. Slides were mounted using DPX Mountant (Electron Microscopy Sciences) and images were obtained by inverted fluorescence microscope (Olympus, Tokyo, Japan).

Pan02 cells [7] = assay: Cell viability assay (MTS), Pan02; assay type: cell-based, murine; conditions: 72 h
Description: Cells were seeded into 96-well plates and treated with varied concentrations of compounds for 72 hrs. Cell viabilities were determined by using MTS reagent (Promega, Madison, WI, USA) according to the manufacturer’s manual. Spectrophotometric absorbance at 490 nm was measured by Flexstation® 3 Multi-Mode Microplate Reader (Molecular Devices, San Jose, CA, USA). The experiments were independently repeated three times.

BxPC-3 cells = assay: Transwell migration assay, BxPC-3; assay type: cell-based, human; conditions: BxPC-3; with PGE2; 24 h
Description: as §3

[8] = test system: YAP/TEAD reporter in Pan02 cells; assay: TEAD-driven luciferase reporter assay, Pan02; assay type: cell-based, murine; conditions: 16 h
Description: CHO-K1 cells or pancreatic cancer cell lines were transfected with a cAMP responsive element (CRE) reporter or TEAD reporter using lipofectamine 2000 according to the manufacturer’s manual. […] Then, cells were lysed and luciferase activities were determined using Dual-Luciferase Reporter Assay Kit (Promega, Madison, WI, USA).

T1 sequence (P35408 whole entry): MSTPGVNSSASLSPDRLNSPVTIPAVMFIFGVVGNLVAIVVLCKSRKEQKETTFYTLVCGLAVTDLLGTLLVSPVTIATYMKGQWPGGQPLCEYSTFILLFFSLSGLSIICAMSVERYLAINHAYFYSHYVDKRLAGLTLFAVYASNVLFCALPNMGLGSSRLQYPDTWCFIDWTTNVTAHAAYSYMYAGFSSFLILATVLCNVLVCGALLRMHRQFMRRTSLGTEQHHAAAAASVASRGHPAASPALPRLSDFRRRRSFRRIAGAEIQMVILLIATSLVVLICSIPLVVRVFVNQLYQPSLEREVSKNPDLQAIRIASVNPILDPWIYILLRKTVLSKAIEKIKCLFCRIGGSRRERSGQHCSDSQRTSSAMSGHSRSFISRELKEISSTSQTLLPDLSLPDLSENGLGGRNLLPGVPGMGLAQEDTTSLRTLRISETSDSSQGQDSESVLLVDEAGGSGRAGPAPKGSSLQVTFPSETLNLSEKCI
T2 sequence (P43114 whole entry): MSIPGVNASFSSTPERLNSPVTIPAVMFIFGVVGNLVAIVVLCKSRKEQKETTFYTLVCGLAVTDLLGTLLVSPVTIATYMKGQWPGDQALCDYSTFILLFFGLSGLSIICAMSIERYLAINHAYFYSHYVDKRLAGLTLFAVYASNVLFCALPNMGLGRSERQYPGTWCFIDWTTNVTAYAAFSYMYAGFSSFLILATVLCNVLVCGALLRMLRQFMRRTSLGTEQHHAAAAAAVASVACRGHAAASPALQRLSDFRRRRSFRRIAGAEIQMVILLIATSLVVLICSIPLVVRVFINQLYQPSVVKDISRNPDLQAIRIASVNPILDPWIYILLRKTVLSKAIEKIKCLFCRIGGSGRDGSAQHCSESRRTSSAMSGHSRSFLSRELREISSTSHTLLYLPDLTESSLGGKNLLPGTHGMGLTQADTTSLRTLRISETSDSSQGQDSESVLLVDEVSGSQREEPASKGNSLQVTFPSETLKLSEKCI

Compound: C[C@H](NC(=O)c1c(Cc2cccc(C(F)(F)F)c2)sc2c1CCOC2)c1ccc(C(=O)O)cc1 [L001]
- mRNA expression levels of YAP, CYR61 and CTGF induced by PGE2, in comparison with E7046 [1]: stronger reductions
- IC50 (EP4 [2]): 1.47 ± 0.02 nM
- antagonism efficacy on EP4 compared with E7046 (EP4 [2]; calcium flux assay): over 5 fold
- PGE2-aroused upregulation of mRNA levels of Vimentin and Snail [3]: remarkably abrogated
- PGE2-mediated downregulation of E-cadherin's expression [3]: reversed
- mRNA expression levels of YAP, CYR61 and CTGF induced by PGE2, in comparison with E7046 ([3]; PGE2 0.1 μM, compound 10 μM): stronger reductions
- IC50 (rat EP4): 14.2 ± 0.88 nM
- IC50 (EP4 [4]): 0.16 ± 0.03 nM
- PGE2-induced phosphorylation of ERK1/2 (ERK1/2 phosphorylation): significantly blocked
- migrated cells in the lower layer of the transwell (Pan02 cells [5]): reduced migrated cells
- YAP protein level in hepatic metastasis loci ([6]; IHC, L001 75 mg/kg p.o. daily): decreased protein levels of YAP
- H&E imaging of liver sections ([6]; L001 or E7046 75 mg/kg p.o. daily, gemcitabine 25 mg/kg i.p. twice a week): remarkably reduced metastatic clusters
- reduction of Pan02 cell liver metastases (bioluminescence of separated livers) ([6]; L001 or E7046 75 mg/kg p.o. daily, gemcitabine 25 mg/kg i.p. twice a week, n = 6): 85.14%
- reduction in median luminescence signal compared with vehicle control group ([6]; day 28, L001 or E7046 75 mg/kg p.o. daily, gemcitabine 25 mg/kg i.p. twice a week, n = 6): 80.57%
- median survival ([6]; n = 9, L001 or E7046 75 mg/kg p.o. daily, gemcitabine 25 mg/kg i.p. twice a week, control 34 days): 42 days
- mRNA expressions of Vimentin and Snail in hepatic metastasis loci ([6]; qPCR, L001 75 mg/kg p.o. daily): reduced the mRNA expressions
- cell viability (Pan02 cells [7]): did not affect the cell viabilities
- migrated cells in the lower layer of the transwell (BxPC-3 cells): reduced migrated cells
- PGE2-driven YAP/TEAD reporter activity [8]: remarkably suppressed
